Results: US20060165683A1, “Methods and compositions for control of bone formation via modulation of sympathetic tone” (priority 2001, published 2006)

Test system: ob/ob mice
Assay: Long-term isoproterenol treatment of ob/ob mice
Format: in vivo, mouse
Procedure: Wildtype (C57BL/6J) and mutant (C57BL/6J A^y/a, C57BL/6J ob/ob) mice were obtained from the Jackson laboratory and adrenal medullectomized mice from Harlan Tecklad laboratory. Dbh−/− mice were rescued as previously described (Thomas et al., 1998, Neurochem 70:2468-2476). […] Propranolol (Sigma) was added to the drinking water at a concentration of 0.5 g/l. For ICV infusion, a 28-gauge cannula (Brain infusion kit II, Alza) was implanted into the third ventricle as previously described infusing human leptin (Sigma) at 8 ng/hr or MT-II at 125 ng/hr (Phoenix Pharmaceuticals) for 28 days (see, e.g., Ducy et al., 2000, Cell 100: 197-207). The cannula was connected to an osmotic pump (Alza) placed in the dorsal subcutaneous space of the animal. For parabiosis longitudinal incisions were made in the skin and in the peritoneal cavity along one side on each mouse. Edges of the incisions were connected by suture to induce coelioanastomosis. Cross-circulation was quantified by injecting 1 ml/kg 0.25% Evans blue into the tail vein of one mouse of the parabiosed pair. After 30 min. blood was collected from both mice by retroorbital bleeding and the blood exchange rate was calculated according to standard techniques (see, e.g., Harris & Martin, 1984, Am J Physiol 247:R380-386). […] Two weeks after parabiosis a pump delivering leptin ICV in one animal of each pair was implanted. For GTG lesioning, 4-week-old C57BL/6J mice were given a single ip injection of either PBS or GTG (0.5 mg/g). For MSG lesioning, 2 day-old C57BL/6J pups were injected daily subcutaneously with either PBS or MSG (2 mg/g) for 10 days.
Histological analyses were performed on undecalcified sections stained by von Kossa and counterstained by von Gieson (see, e.g., Ducy et al., 2000, Cell 100:197-207). Static and dynamic histomorphometric analyses were performed according to standard protocols (see, e.g., Parfitt et al., 1987, J Bone Miner Res 6:595-610) using the Osteomeasure Analysis System (Osteometrics, Atlanta). Six to 12 animals were analyzed for each group. Statistical significance was assessed by Student's t test.
Primary osteoblast cultures were established as previously described (see, e.g., Ducy et al., 2000, Cell 100: 197-207) and maintained in αMEM/0.1 mg/ml ascorbic acid supplemented with 10% FBS. SaOS-2 were grown in MEM/10% FBS. For cAMP assay confluent cultures were incubated with serum free medium containing 100 μM IBMX (3-isobutyl-1-methylxanthine, Sigma) for 8 minutes before PBS, PTH(1-34) (Bachem), isoproterenol, norepinephrine, phenylephrine (Sigma) or propranolol were added for 5 min. Intracellular cAMP concentration was measured by immunoassay (R&D Systems). For gene expression analyses, primary osteoblasts were treated for 72 hours with appropriate drugs in 0.1% FBS. Hormone serum levels were quantified using immunoassays kits from Peninsula Laboratories (Insulin) or Alpco Diagnostics (leptin). Deoxypyridinoline cross-links and Creatinine were measured in morning urines using the Quidel kits. a1(I) leptin bioactivity was verified by cotransfection of 293 cells expressing ObRb with a STAT3-responsive-luc reporter construct, pSVβgal plasmid and a1(I) leptin expression vector or mock. Twenty-four hours later luciferase and β-galactosidase activities were measured. Data represents ratios of luciferase/β-galactosidase activities, and values are mean of 6 independent transfection experiments.
To address this point one month-old ob/ob mice were treated for 6 weeks with the β-adrenergic agonist isoproterenol or vehicle.

[1] = ob/ob mice, 3 mg/kg/day, 6 weeks

## CC(C)NCC(O)c1ccc(O)c(O)c1 (centres unmarked) [isoproterenol]
ob/ob + isoproterenol
  Bone Volume: Low
ob/ob mice
  expression of uncoupling protein 1 (Ucp1) in brown adipose tissue: increased
[1]
  bone formation rate: marked decrease
  bone resorption parameters: unaffected
  number of osteoblasts per bone surface: marked decrease
ob/ob mice, 10 mg/kg/day
  bone mass and bone formation parameters compared with 3 mg/kg/day: Identical results
ob/ob mice, 3 and 10 mg/kg/day
  body weight: without affecting
One month-old ob/ob mice, 3 mg/kg/day ip, 6 weeks
  bone mass in the vertebrae and long bones: massive bone loss
